These are literature values, as cited in PMC3762478 (Bioorganic & medicinal chemistry letters, 2013).

Broadly, the Ki is a measure of affinity in units of concentration, obtained from inhibition or displacement.

Like-named read-outs stand apart in the source and are kept apart here.

The test system of data set [1] is −1 receptor (sigma-1). To be noted: guinea-pig brain membranes.
Data set [2] relates to −1 receptor (sigma-1). To be noted: rat brain homogenates.

In the case of `CCCc1ccc2c(c1)sc(=O)n2CCN1CCCCCC1` [Compound 1], in the data set on −1 receptor (sigma-1) [1], the “selectivity over −2 receptor” value is listed as “over 1000 fold”. Further, at −1 receptor (sigma-1) [1] (read-out: Ki for −1 receptor), the Ki is 0.56 nM.

For the compound `O=c1sc2cc(CCCF)ccc2n1CCN1CCCCCC1` [Compound 2], the “selectivity over −2 receptor” value with −1 receptor (sigma-1) [2] is listed as > 100,000 fold. Further, the Ki at −1 receptor (sigma-1) [2] (read-out: Ki for −1 receptor) is 0.0025 nM.
